Test results published in US20130303535A1, “NOVEL BICYCLIC HETEROCYCLIC COMPOUND” (priority 2008, published 2013).
Counter-ions that a name gives are not always drawn.

molecular target: TTX resistant Na channel of human SNS-expressing cell (SNS) (Homo sapiens, UniProt Q9Y5Y9); assay: cell-based; conditions: CHO-K1, compound concentration 12.5 μM; read-out: SNS inhibitory rate (%)
Sequence (Q9Y5Y9 whole entry, looked up): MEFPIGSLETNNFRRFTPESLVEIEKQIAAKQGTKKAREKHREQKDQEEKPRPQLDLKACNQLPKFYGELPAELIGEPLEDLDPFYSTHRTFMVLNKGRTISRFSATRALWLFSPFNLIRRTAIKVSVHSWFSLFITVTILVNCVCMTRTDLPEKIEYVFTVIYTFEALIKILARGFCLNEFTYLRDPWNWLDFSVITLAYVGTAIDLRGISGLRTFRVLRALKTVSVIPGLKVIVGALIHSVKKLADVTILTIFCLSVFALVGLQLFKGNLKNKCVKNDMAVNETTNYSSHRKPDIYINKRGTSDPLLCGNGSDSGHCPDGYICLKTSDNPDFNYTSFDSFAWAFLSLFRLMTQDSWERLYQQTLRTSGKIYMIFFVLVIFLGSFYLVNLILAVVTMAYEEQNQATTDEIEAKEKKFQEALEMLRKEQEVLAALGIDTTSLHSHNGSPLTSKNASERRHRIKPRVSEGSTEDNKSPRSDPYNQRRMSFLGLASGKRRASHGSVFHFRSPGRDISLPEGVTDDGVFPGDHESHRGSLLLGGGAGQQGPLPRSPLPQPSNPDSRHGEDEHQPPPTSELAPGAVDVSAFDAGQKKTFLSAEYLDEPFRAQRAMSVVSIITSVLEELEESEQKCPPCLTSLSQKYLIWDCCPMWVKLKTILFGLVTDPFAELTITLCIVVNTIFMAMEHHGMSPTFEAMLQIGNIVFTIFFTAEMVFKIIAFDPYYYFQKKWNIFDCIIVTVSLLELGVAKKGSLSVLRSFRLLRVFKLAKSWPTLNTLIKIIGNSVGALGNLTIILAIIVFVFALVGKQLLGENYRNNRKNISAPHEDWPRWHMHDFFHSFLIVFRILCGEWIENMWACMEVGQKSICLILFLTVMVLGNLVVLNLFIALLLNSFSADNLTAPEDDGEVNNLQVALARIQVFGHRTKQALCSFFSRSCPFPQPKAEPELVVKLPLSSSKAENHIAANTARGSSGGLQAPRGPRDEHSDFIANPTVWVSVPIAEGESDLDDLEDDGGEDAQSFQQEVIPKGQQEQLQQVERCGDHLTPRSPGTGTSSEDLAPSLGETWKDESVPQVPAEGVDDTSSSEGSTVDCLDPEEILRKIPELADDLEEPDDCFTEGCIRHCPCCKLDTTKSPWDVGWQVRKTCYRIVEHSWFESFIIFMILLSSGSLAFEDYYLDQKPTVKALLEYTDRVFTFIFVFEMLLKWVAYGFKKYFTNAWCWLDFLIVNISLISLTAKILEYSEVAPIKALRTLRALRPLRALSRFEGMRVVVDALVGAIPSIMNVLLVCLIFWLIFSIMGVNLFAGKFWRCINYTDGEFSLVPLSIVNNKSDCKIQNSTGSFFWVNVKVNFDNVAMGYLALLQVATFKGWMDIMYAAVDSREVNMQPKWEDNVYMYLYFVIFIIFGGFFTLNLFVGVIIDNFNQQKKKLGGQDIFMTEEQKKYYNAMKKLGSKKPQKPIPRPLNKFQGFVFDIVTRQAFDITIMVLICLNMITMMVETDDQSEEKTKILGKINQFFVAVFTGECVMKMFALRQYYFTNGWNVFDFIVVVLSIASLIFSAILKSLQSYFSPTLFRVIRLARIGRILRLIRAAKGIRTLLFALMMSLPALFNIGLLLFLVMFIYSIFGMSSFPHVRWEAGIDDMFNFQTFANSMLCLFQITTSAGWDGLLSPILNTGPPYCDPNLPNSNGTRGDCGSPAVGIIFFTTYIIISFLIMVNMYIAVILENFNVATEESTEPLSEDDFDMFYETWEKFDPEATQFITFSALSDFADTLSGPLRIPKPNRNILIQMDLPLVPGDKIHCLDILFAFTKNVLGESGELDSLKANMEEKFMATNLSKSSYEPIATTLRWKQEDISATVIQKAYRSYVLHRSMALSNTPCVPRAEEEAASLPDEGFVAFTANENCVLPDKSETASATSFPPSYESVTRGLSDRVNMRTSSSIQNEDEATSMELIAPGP

Compound | inhibition at 12.5 µM
CCOCCn1c(CN[C@@H](C)C(N)=O)nc2ccc(Oc3ccc(OC(F)(F)F)cc3)cc21 [Example 43] | 61%
C[C@H](NCc1nc2ccc(Oc3ccccc3)cc2n1CC1CCOCC1)C(N)=O [Example 13] | 29.8%
CCOCCn1c(CNC(C)(C)C(N)=O)nc2ccc(Oc3ccc(F)cc3)cc21 [Example 5, N^2-{[1-(2-ethoxyethyl)-6-(4-fluorophenoxy)-1H-benzimidazol-2-yl]methyl}-2-methylalaninamide] | 59.3%
CCOCCn1c(CN[C@@H](C)C(N)=O)nc2cc(-c3ccc(Cl)cc3)ccc21 [Example 191, N^2-{[5-(4-chlorophenyl)-1-(2-ethoxyethyl)-1H-benzimidazol-2-yl]methyl}-L-alaninamide hydrochloride] | 23.3%
Cc1ccc(Oc2ccc3nc(CN[C@@H](C)C(N)=O)n(C[C@H]4CCCO4)c3c2)cc1 [Example 131] | 55.9%
CCOCCn1c(CN[C@@H](C)C(N)=O)nc2ccc(-c3ccc(C)c(F)c3)cc21 [Example 169] | 68.1%
CCOCCn1c(CN[C@@H](C)C(=O)N2CCNC(C(F)(F)F)C2)nc2ccc(Oc3ccc(F)cc3)cc21 (stereo partly drawn) [Example 108] | 85.3%
CCOCCn1c(CN[C@@H](CC)C(N)=O)nc2ccc(Oc3ccccc3)cc21 [Example 37] | 42.3%
CCOCCn1c(CN[C@@H](C)C(N)=O)nc2ccc(-c3ccc(F)cc3OC)cc21 [Example 172] | 50.9%
CCOCCn1c(CN[C@@H](C)C(N)=O)nc2ccc(-c3ccccc3Cl)cc21 [Example 71] | 73.7%
CCn1c(CNC(C)(C)C(N)=O)nc2ccc(Oc3ccc(F)cc3)cc21 [Example 138] | 93.1%
CCOCCn1c(CNC(C)(C)C(N)=O)nc2ccc(Oc3ccccc3Cl)cc21 [Example 32] | 91.2%
COCCCn1c(CNC(C)(C)C(N)=O)nc2ccc(Oc3ccc(C)cc3)cc21 [Example 142] | 47.9%
CCOCCn1c(CN[C@H](C(N)=O)C(C)C)nc2ccc(-c3ccc(F)cc3)cc21 [Example 151] | 26.6%
CCOCCn1c(CN[C@@H](C)C(N)=O)nc2ccc(Oc3ccc(CC)cc3)cc21 [Example 102] | 96.3%
CC(C)n1c(CN[C@@H](C)C(N)=O)nc2ccc(Oc3ccccc3)cc21 [Example 9] | 28.9%
CCOCCn1c(CN[C@@H](C)C(=O)N2CCNC(C#N)C2)nc2ccc(Oc3ccc(F)cc3)cc21 (stereo partly drawn) [Example 107] | 83.7%

same assay, conditions: compound concentration 12.5 μM

Compound | SNS inhibitory rate (%)
CCOCCn1c(CN[C@@H](C)C(N)=O)nc2cc(Cl)c(-c3ccc(F)cc3)cc21 [Example 176] | 68.8%
